26 molecules from EP1420018A1, “Pyrido[1,2-a]benzimidazole derivatives useful in treating central nervous system disorders” (Ortho-McNeil Pharmaceutical, Inc., priority 1996, dated 1998) can be followed below.

Each structure is given as a SMILES string. Structures can show the parent of a compound that is named as a salt. Where two headings read alike, the source gives them in different places.

Test [1] has as its system metrazol-induced convulsions. Nature of the test: Suppression of Metrazol-Induced Convulsions in Adult Male Mice. The test is classed as in vivo. Conditions: Mus musculus, ip. As for the experimental part: Assay to Determine the Suppression of Metrazol-Induced Convulsions in Adult Male Mice
Male CD1 mice, were fasted at least 16 hours, were divided into equal groups and test compounds or vehicle were administered parenterally. Water was not withheld except during the period of observations. […] Metrazol was dissolved in 0.9% sodium chloride solution, and its dose volume was 10 ml/kg. Animals were housed individually for observation of clonic convulsions, tonic convulsions and death for a period of 30 min. […] The biological assay was considered to be valid if the effects of a known anticonvulsant (positive control) were detected, within the same experiment. Activity was reported as percent reduction of clonic convulsions from the vehicle group.

In test [2] the test system is Anxiety in the Adult Male Rat. Nature of the test: Suppression of Anxiety in the Adult Male Rat (rat conflict test). As to conditions: Rattus norvegicus. The test is classed as in vivo, rats. As for the experimental part: Assay to Measure the Suppression of Anxiety in the Adult Male Rat
Male rats were deprived of water for 48 hours and were deprived of food for 24 hours prior to testing. After the first 24 hours of water deprivation, they were placed in the conflict chamber for a training period; wherein, they were allowed 200 unpunished licks from a bottle containing tap water. The experiment was run the next day. At the expected time of peak activity, the animals were placed in the chamber and allowed access to tap water. […] Their first lick initiates a 3-min test session. Subsequently, every 20th lick was punished by a 0.2-s shock delivered via the stainless-steel drinking-tube.
The Wilcoxon rank-sum test (Mann-Whitney U-test) was used to test for an increase (p<0.05, 1-tailed) in the median number of shocks in drug-treated groups, compared to a concurrently run vehicle-treated group. The biological assay is considered to be valid if the effects of a known anxiolytic (positive control) are detected, within the same experiment.

Test [3] relates to metrazol-induced convulsions. Nature of the test: Suppression of Metrazol-Induced Convulsions in Adult Male Mice. Type of test: in vivo. As to conditions: Mus musculus, po.
In test [4] the target is benzodiazepine site of the GABA-A receptor. Nature of the test: Benzodiazepine Receptor Binding Assay (inhibition of 3H-flunitrazepam binding). As to conditions: read-out: GABAA Receptor Binding IC50.
[5] abbreviates: po, rat, po, read-out: Rat Conflict (MED, mg/kg) po.
The mark [6] stands for this setting: ip, rat, ip, read-out: Rat Conflict (MED, mg/kg) ip.
[7] abbreviates: block of clonic convulsions, male CD1 mice, >30 = active dose not determined.
[8] abbreviates: ip, minimum effective dose, increase in shocks tolerated, >10 = active dose not determined, read-out: Rat Conflict (MED, mg/kg) ip.
[9] abbreviates: po, minimum effective dose, increase in shocks tolerated, >10 = active dose not determined, read-out: Rat Conflict (MED, mg/kg) po.
Where [10] appears, read: inhibition of 3H-flunitrazepam (ca. 3 nM) binding to membranes, 25°C, over 10,000 = not active.

A word on the ED50: it is the dose that gives a 50% effect, or the effect in half of the subjects. Read a low ED50 as an effect at a small dose. The IC50 is the point on the concentration scale where inhibition reaches its midpoint. With `CCOCCN1C2=C(C(=O)Nc3sccc3Cl)C(=O)CCN2c2ccc(F)cc21` [Compound 125], the ED50 was under 1 mg/kg in test [1] (mouse) and over 30 mg/kg in test [3] (mouse). For the same molecule, the minimal effective dose in test [2] (setting [5]) was over 10 mg/kg. For the same molecule, the IC50 in test [4] turned out to be 0.89 nM.
Take `CC(C)N(CCN1C2=C(C(=O)Nc3ccccc3F)C(=O)CCN2c2ccc(F)cc21)C(C)C` [Compound 69]: the ED50 in test [1] (mouse) was 1 mg/kg; in test [3] (mouse) it was over 30 mg/kg. In addition, the minimal effective dose in test [2] (setting [6]) was over 10 mg/kg. In addition, in test [4], the IC50 came to 78.4 nM.
Consider `CCOCCCN1C2=C(C(=O)Nc3ccccc3F)C(=O)CCN2c2ccc(F)cc21` [Compound 152], for which the results for the ED50 in test [1] (mouse) and in test [3] (mouse) were under 1 mg/kg and about 0.3 mg/kg, respectively. Besides, the minimal effective dose in test [2] (setting [5]) worked out at 1 mg/kg. Also, the IC50 in test [4] was found to be 0.28 nM.
Take `CCOCN1C2=C(C(=O)Nc3cccs3)C(=O)CCN2c2ccc(F)cc21` [Compound 129]: the ED50 in test [1] (mouse) is under 1 mg/kg; in test [3] (mouse), about 0.2 mg/kg. In test [2] (setting [5]), the minimal effective dose stood at 3 mg/kg. Further, the IC50 in test [4] was 1.05 nM.
In the same order, the values of `O=C1CCN2C(=C1C(=O)Nc1ccccc1F)N(CCN1CCNCC1)c1cc(F)ccc12` [Compound 81] are over 1 mg/kg, over 30 mg/kg, over 10 mg/kg and 12.7 nM.
Take `CN(C)CCN1C2=C(C(=O)Nc3ccncc3)C(=O)CCN2c2ccccc21` [Compound 72]: the ED50 in test [1] (mouse) is over 10 mg/kg; in test [3] (mouse) it was over 30 mg/kg. Besides, the minimal effective dose in test [2] (setting [6]) was over 10 mg/kg. In addition, the IC50 in test [4] stood at 3840 nM.
In the case of `CN(C)CCN1C2=C(C(=O)Nc3cccs3)C(=O)CCN2c2ccc(F)cc21` [Compound 49], the ED50 in test [1] (mouse) is 3 mg/kg; in test [3] (mouse) it was about 5 mg/kg. Besides, the minimal effective dose in test [2] (setting [6]) is over 10 mg/kg; in test [2] (setting [5]), about 10 mg/kg. Further, the IC50 in test [4] came to 152 nM.
With `COCCN1C2=C(C(=O)Nc3ccc(C)s3)C(=O)CCN2c2ccccc21` [Compound 142], the ED50 was under 1 mg/kg in test [1] (mouse) and 0.7 mg/kg in test [3] (mouse). In addition, the minimal effective dose in test [2] (setting [5]) is about 1 mg/kg. For the same molecule, the IC50 in test [4] came to 3.17 nM.
`CN(C)c1ccc(CCN2C3=C(C(=O)Nc4c(F)cccc4F)C(=O)CCN3c3ccc(F)cc32)cc1` [Compound 83]: the ED50 was 3 mg/kg in test [1] (mouse) and under 30 mg/kg in test [3] (mouse). In addition, the minimal effective dose in test [2] (setting [6]) was over 10 mg/kg. For the same molecule, the half-inhibitory concentration (IC50) in test [4] was 36.2 nM.
For `O=C1CCN2C(=C1C(=O)Nc1ccccc1F)N(CCNC(=O)C(F)(F)F)c1cc(F)ccc12` [Compound 51], the ED50 in test [1] (mouse) was found to be 0.3 mg/kg; in test [3] (mouse) it was 1 mg/kg. Also, the minimal effective dose is about 10 mg/kg in test [2] (setting [6]) and over 10 mg/kg in test [2] (setting [5]). Also, in test [4], the IC50 was found to be 0.51 nM.
Regarding `COCCN1C2=C(C(=O)NC3CCCCC3)C(=O)CCN2c2ccc(F)cc21` [Compound 110], the ED50 is at least 1 mg/kg in test [1] (mouse) and at least 30 mg/kg in test [3] (mouse). The minimal effective dose in test [2] (setting [5]) is 10 mg/kg. For the same molecule, in test [4], the IC50 came to 19.1 nM.
In the same order, the values of `COCCN1C2=C(C(=O)Nc3ccccc3F)C(=O)CCN2c2ccc(F)c(F)c21` [Compound 149] are under 1 mg/kg, 3 mg/kg, over 10 mg/kg and 1.08 nM.
With `COCN1C2=C(C(=O)Nc3ccccc3F)C(=O)CCN2c2ccc(F)cc21` [Compound 158], the ED50 in test [1] (mouse) stood at 0.01 mg/kg; in test [3] (mouse) it was 0.1 mg/kg. In addition, the minimal effective dose is under 10 mg/kg in test [2] (setting [6]) and 3 mg/kg in test [2] (setting [5]). The half-inhibitory concentration (IC50) in test [4] was 0.15 nM.
With `CCOCN1C2=C(C(=O)Nc3c(F)cccc3F)C(=O)CCN2c2c1ccc(F)c2F` [Compound 127], the ED50 was about 1 mg/kg in test [1] (mouse) and over 30 mg/kg in test [3] (mouse). Besides, the minimal effective dose in test [2] (setting [5]) is over 10 mg/kg. The IC50 in test [4] came out at 585 nM.
As to `CC1(C)OCC(CN2C3=C(C(=O)Nc4ccccc4F)C(=O)CCN3c3ccc(F)cc32)O1` (stereo not shown) [Compound 164], the 50% effective dose (ED50) turned out to be 0.1 mg/kg in test [1] (mouse) and 1 mg/kg in test [3] (mouse). The minimal effective dose is under 10 mg/kg in test [2] (setting [6]) and 10 mg/kg in test [2] (setting [5]). Moreover, the IC50 in test [4] turned out to be 2.75 nM.
In the same order, the values of `CN(C)CCN1C2=C(C(=O)Nc3ccccc3F)C(=O)CCN2c2ccc(F)cc21` [Compound 74, 7-Fluoro-1,2-dihydro-5-(2-dimethylaminoethyl)-3-oxo-N-(2-fluorophenyl)pyrido[1,2-a]benzimidazole-4-carboxamide hydrochloride hydrate (4:4:1)] are 0.5 mg/kg, under 3 mg/kg, under 10 mg/kg, 3 mg/kg and 49.9 nM.
Turning to `COCCN1C2=C(C(=O)Nc3ccc(Cl)s3)C(=O)CCN2c2ccc(F)cc21` [Compound 145], the values for the ED50 in test [1] (mouse) and in test [3] (mouse) were under 1 mg/kg and about 30 mg/kg, respectively. In addition, the minimal effective dose in test [2] (setting [5]) was over 10 mg/kg. The IC50 in test [4] was determined as 2.05 nM.
In the same order, the values of `CCOCN1C2=C(C(=O)Nc3ccc(C)s3)C(=O)CCN2c2ccccc21` [Compound 101] are under 1 mg/kg, under 3 mg/kg, 3 mg/kg and 0.95 nM.
For `O=C1CCN2C(=C1C(=O)Nc1ccccc1F)N(CCNC(=O)c1ccc(C(F)(F)F)cc1)c1cc(F)ccc12` [Compound 42], the ED50 was at least 30 mg/kg in test [1] (setting [7]) and over 30 mg/kg in test [3] (setting [7]). In addition, the minimal effective dose is at most 10 mg/kg in test [2] (setting [8]) and about 3 mg/kg in test [2] (setting [9]). The IC50 in test [4] (setting [10]) is 17 nM.
With `CCOCN1C2=C(C(=O)Nc3ccc(OC(=O)OC)cc3F)C(=O)CCN2c2ccc(F)cc21` [Compound 100], the ED50 is at least 1 mg/kg in test [1] (mouse) and 3 to 30 mg/kg in test [3] (mouse). Besides, the minimal effective dose in test [2] (setting [5]) was about 1 mg/kg. Besides, the IC50 in test [4] amounted to 4.35 nM.
For the molecule `CN(C)CCN1C2=C(C(=O)Nc3ccccc3F)C(=O)CCN2c2cccc(F)c21` [Compound 45], the ED50 is 1 mg/kg in test [1] (setting [7]) and 3 to 10 mg/kg in test [3] (setting [7]). Moreover, the figures for the minimal effective dose in test [2] (setting [8]) and in test [2] (setting [9]) were over 10 mg/kg and 10 mg/kg, respectively. For the same molecule, the IC50 in test [4] (setting [10]) was found to be 40.6 nM.
As to `CN(CCN1C2=C(C(=O)Nc3ccccc3F)C(=O)CCN2c2ccc(F)cc21)Cc1ccc(F)cc1` [Compound 62], the ED50 is 3 mg/kg in test [1] (mouse) and 30 mg/kg in test [3] (mouse). The results for the minimal effective dose in test [2] (setting [6]) and in test [2] (setting [5]) were under 10 mg/kg and over 10 mg/kg, respectively. In test [4], the IC50 was determined as 7.69 nM.
As for `COCCN1C2=C(C(=O)Nc3ccc(Cl)s3)C(=O)CCN2c2ccccc21` [Compound 146], the ED50 in test [1] (mouse) was under 1 mg/kg; in test [3] (mouse), over 30 mg/kg. Further, in test [2] (setting [5]), the minimal effective dose was over 10 mg/kg. Also, the IC50 in test [4] was found to be 2.09 nM.
As to `N#CCN1C2=C(C(=O)NC3CC3)C(=O)CCN2c2ccc(F)cc21` [Compound 77], the ED50 in test [1] (mouse) was under 1 mg/kg; in test [3] (mouse) it was over 30 mg/kg. In addition, the minimal effective dose in test [2] (setting [5]) is over 10 mg/kg. In addition, in test [4], the IC50 is 0.86 nM.
Regarding `O=C(Nc1c(F)cccc1F)OCCN1C2=C(C(=O)Nc3c(F)cccc3F)C(=O)CCN2c2ccc(F)cc21` [Compound 179], the figures for the ED50 in test [1] (mouse) and in test [3] (mouse) were 10 mg/kg and over 30 mg/kg, respectively. Besides, the minimal effective dose in test [2] (setting [6]) is over 10 mg/kg. Besides, in test [4], the IC50 amounted to 7.65 nM.
Consider `CC(C)(C)OC(=O)CN1C2=C(C(=O)Nc3ccccc3F)C(=O)CCN2c2ccc(F)cc21` [Compound 176], for which the ED50 in test [1] (mouse) is over 1 mg/kg; in test [3] (mouse), over 30 mg/kg. Besides, in test [2] (setting [5]), the minimal effective dose is over 10 mg/kg. Moreover, in test [4], the IC50 was found to be 56.2 nM.
